ChEMBL document CHEMBL1926511, “Novel amino-piperidines as potent antibacterials targeting bacterial type IIA topoisomerases” (Bioorg Med Chem Lett, 2011)
pIC50: −log10 of the molar value. Converted amounts (≈) assume the structure as drawn. The source made the active and inactive calls. The rule behind the calls is not given here.

How the values were obtained:
[1] = Distribution coefficient, log D of the compound at pH 7.4; format: physicochemical; conditions: octanol/water
Haemophilus influenzae = test: Antibacterial activity against Haemophilus influenzae H128 after 18 to 24 hrs by broth microdilution method; format: functional
Staphylococcus aureus = test: Antibacterial activity against Staphylococcus aureus WCUH 29 after 18 to 24 hrs by broth microdilution method; format: functional
[2] = target: T1, Voltage-gated inwardly rectifying potassium channel KCNH2 (Homo sapiens, UniProt Q12809); test: Displacement of [3H]dofetilide from human ERG by liquid scintillation counting
[3] = Inhibition of Haemophilus influenzae DNA gyrase-dependent DNA replication by scintillation proximity assay
Streptococcus pneumoniae [4] = test: Antibacterial activity against Streptococcus pneumoniae 1629 after 18 to 24 hrs by broth microdilution method; format: functional
[5] = target: T1, Voltage-gated inwardly rectifying potassium channel KCNH2; test: Inhibition of human ERG expressed in HEK293 cells by patch-clamp electrophysiology; format: cell-based
[6] = Intrinsic clearance in cynomolgus monkey liver microsomes; format: ADME, Macaca fascicularis, Microsome
[7] = AUC in cynomolgus monkey at 5.2 mg/kg, po; format: ADME, organism-based, Macaca fascicularis; parameters: dose 5.2 mg/kg, route oral; conditions: plasma
[8] = Volume of distribution at steady state in cynomolgus monkey at 3.1 mg/kg, iv; format: ADME, organism-based, Macaca fascicularis; parameters: dose 3.1 mg/kg, route intravenous; conditions: in vivo, read-out: Vdss
[9] = Oral bioavailability in Beagle dog at 4 mg/kg; format: ADME, organism-based, Canis lupus familiaris; conditions: in vivo
Cynomolgus monkey = test: Hepatic blood flow in cynomolgus monkey; format: ADME, organism-based, Macaca fascicularis, Liver
Liver = test: Intrinsic clearance in dog liver microsomes; format: ADME, Canis lupus familiaris, Microsome
[10] = AUC in Sprague-Dawley rat at 5.6 mg/kg, po; format: ADME, organism-based; parameters: dose 5.6 mg/kg, route oral; conditions: plasma
[11] = Blood clearance in Sprague-Dawley rat at 3.5 mg/kg, iv; format: ADME, organism-based; parameters: dose 3.5 mg/kg, route intravenous; conditions: whole blood
[12] = Volume of distribution at steady state in Beagle dog at 3.5 mg/kg, iv; format: ADME, organism-based, Canis lupus familiaris; parameters: dose 3.5 mg/kg, route intravenous; conditions: in vivo, read-out: Vdss
[13] = Mean residence time in Sprague-Dawley rat at 3.5 mg/kg, iv; format: ADME, organism-based; parameters: dose 3.5 mg/kg, route intravenous; conditions: in vivo
[14] = Volume of distribution at steady state in Sprague-Dawley rat at 3.5 mg/kg, iv; format: ADME, organism-based; parameters: dose 3.5 mg/kg, route intravenous; conditions: in vivo, read-out: Vdss
[15] = Half life in cynomolgus monkey at 3.1 mg/kg, iv; format: ADME, organism-based, Macaca fascicularis; parameters: dose 3.1 mg/kg, route intravenous; conditions: in vivo
[16] = Blood clearance in cynomolgus monkey at 3.1 mg/kg, iv; format: ADME, organism-based, Macaca fascicularis; parameters: dose 3.1 mg/kg, route intravenous; conditions: whole blood
[17] = Oral bioavailability in cynomolgus monkey at 5.2 mg/kg; format: ADME, organism-based, Macaca fascicularis; conditions: in vivo
Streptococcus pneumoniae [18] = test: Antibacterial activity against Streptococcus pneumoniae 1629 infected in rat respiratory tract infection model assessed as log reduction in bacterial burden at 50 mg/kg, po after 1 hr post infection relative to non-treated control; format: functional
[19] = Half life in Beagle dog at 3.5 mg/kg, iv; format: ADME, organism-based, Canis lupus familiaris; parameters: dose 3.5 mg/kg, route intravenous; conditions: in vivo
[20] = Plasma protein binding in cynomolgus monkey; format: ADME, cell-free, Macaca fascicularis; conditions: read-out: PPB (converted)
Streptococcus pneumoniae [21] = test: Antibacterial activity against Streptococcus pneumoniae 1629 infected in rat respiratory tract infection model assessed as complete eradication of bacterial burden at 50 mg/kg, po after 31 hrs post infection; format: functional, organism-based; parameters: dose 50 mg/kg
[22] = Plasma protein binding in rat; format: ADME, cell-free; conditions: read-out: PPB (converted)
Rattus norvegicus = species: Rattus norvegicus; test: Hepatic blood flow in Sprague-Dawley rat; format: ADME, organism-based, Liver
[23] = Mean residence time in cynomolgus monkey at 3.1 mg/kg, iv; format: ADME, organism-based, Macaca fascicularis; parameters: dose 3.1 mg/kg, route intravenous; conditions: in vivo
Liver microsomes = test: Intrinsic clearance in human liver microsomes; format: ADME, Microsome
[24] = Plasma protein binding in human; format: ADME, cell-free; conditions: read-out: PPB (converted)
[25] = Half life in Sprague-Dawley rat at 3.5 mg/kg, iv; format: ADME, organism-based; parameters: dose 3.5 mg/kg, route intravenous; conditions: in vivo
Canis familiaris = species: Canis familiaris; test: Hepatic blood flow in Beagle dog; format: ADME, organism-based, Canis lupus familiaris, Liver
Streptococcus pneumoniae [26] = test: Antibacterial activity against Streptococcus pneumoniae 1629 infected in rat respiratory tract infection model assessed as log reduction in bacterial burden at 50 mg/kg, po after 48 hrs post infection relative to non-treated control; format: functional
[27] = Mean residence time in Beagle dog at 3.5 mg/kg, iv; format: ADME, organism-based, Canis lupus familiaris; parameters: dose 3.5 mg/kg, route intravenous; conditions: in vivo
[28] = AUC in Beagle dog at 4 mg/kg, po; format: ADME, organism-based, Canis lupus familiaris; parameters: dose 4 mg/kg, route oral; conditions: plasma
[29] = Oral bioavailability in Sprague-Dawley rat at 5.6 mg/kg; format: ADME, organism-based; conditions: in vivo
[30] = Blood clearance in Beagle dog at 3.5 mg/kg, iv; format: ADME, organism-based, Canis lupus familiaris; parameters: dose 3.5 mg/kg, route intravenous; conditions: whole blood
[31] = Inhibition of Escherichia coli DNA gyrase-dependent DNA replication by scintillation proximity assay

T1 sequence (Q12809 whole entry): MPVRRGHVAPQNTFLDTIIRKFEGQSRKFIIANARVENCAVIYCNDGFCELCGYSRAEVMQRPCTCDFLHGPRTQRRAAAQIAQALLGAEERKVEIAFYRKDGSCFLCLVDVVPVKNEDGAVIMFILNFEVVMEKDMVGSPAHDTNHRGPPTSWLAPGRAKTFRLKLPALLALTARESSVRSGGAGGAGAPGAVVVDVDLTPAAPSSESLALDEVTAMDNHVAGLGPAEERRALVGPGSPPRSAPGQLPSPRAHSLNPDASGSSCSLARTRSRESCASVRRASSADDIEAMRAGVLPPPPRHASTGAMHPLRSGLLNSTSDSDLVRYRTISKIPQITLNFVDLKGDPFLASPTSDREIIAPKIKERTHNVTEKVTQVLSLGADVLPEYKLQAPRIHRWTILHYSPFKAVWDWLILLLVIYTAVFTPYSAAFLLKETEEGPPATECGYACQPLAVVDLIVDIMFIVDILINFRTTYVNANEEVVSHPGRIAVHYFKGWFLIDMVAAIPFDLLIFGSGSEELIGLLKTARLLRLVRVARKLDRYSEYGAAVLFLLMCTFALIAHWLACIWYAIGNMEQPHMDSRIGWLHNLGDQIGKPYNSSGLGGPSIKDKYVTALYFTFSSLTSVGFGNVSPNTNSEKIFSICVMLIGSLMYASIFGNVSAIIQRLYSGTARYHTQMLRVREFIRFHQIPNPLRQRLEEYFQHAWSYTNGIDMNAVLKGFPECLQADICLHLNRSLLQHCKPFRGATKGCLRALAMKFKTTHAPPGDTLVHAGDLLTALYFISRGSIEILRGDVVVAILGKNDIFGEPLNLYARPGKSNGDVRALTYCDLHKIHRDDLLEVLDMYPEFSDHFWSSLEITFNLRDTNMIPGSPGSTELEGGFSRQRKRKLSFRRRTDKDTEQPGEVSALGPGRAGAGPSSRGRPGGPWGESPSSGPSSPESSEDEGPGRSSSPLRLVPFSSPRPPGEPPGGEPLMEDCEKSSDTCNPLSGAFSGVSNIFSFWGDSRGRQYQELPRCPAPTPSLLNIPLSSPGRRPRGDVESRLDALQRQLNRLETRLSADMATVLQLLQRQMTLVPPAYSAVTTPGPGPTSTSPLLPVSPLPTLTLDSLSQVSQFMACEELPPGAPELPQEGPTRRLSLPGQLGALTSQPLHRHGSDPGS

Structure (SMILES): COc1ccc2ncc(F)c(CCN3CCC(NCc4cc5c(cn4)OCCO5)CC3)c2c1
- logD [1]: 2.03
- MIC (Haemophilus influenzae): 0.25 µg/mL (≈ 0.552 µM)
- MIC (Staphylococcus aureus): 0.01 µg/mL (≈ 0.0221 µM)
- pIC50 [2]: 5.30
- IC50 [3]: 0.031 µg/mL (≈ 0.0685 µM)
- MIC (Streptococcus pneumoniae [4]): 0.03 µg/mL (≈ 0.0663 µM)
- pIC50 [5]: 5.22

Structure (SMILES): COc1ccc2ncc(F)c([C@@H](O)CN3CCC(NCc4cc5c(cn4)OCCO5)CC3)c2n1
- CL [6]: 4.8 mL/min/g
- AUC [7]: 720 ng·h/mL
- Vd [8]: 4.1 L/kg
- bioavailability [9]: 76%
- QH (Cynomolgus monkey): 35%
- CL (Liver): 0.7 mL/min/g
- AUC [10]: 720 ng·h/mL
- clearance [11]: 67.2 mL/min/kg
- Vd [12]: 16.5 L/kg
- logD [1]: 0.59
- MRT [13]: 2.5 h
- MIC (Haemophilus influenzae): 0.5 µg/mL (≈ 1.06 µM)
- Vd [14]: 9.8 L/kg
- half-life [15]: 5.6 h
- clearance [16]: 15.2 mL/min/kg
- bioavailability [17]: 12%
- MIC (Staphylococcus aureus): 0.03 µg/mL (≈ 0.0639 µM)
- log10cfu (Streptococcus pneumoniae [18]): 2
- half-life [19]: 12.4 h
- fraction unbound [20]: 0.354
- Activity (Streptococcus pneumoniae [21]): Active
- fraction unbound [22]: 0.589
- QH (Rattus norvegicus): 100%
- pIC50 [2]: 4.10
- MRT [23]: 4.6 h
- CL (Liver microsomes): < 0.6 mL/min/g
- fraction unbound [24]: 0.307
- half-life [25]: 2.5 h
- IC50 [3]: 0.078 µg/mL (≈ 0.166 µM)
- QH (Canis familiaris): 35%
- MIC (Streptococcus pneumoniae [4]): 0.06 µg/mL (≈ 0.128 µM)
- log10cfu (Streptococcus pneumoniae [26]): >=4
- MRT [27]: 16.5 h
- pIC50 [5]: 5.30
- AUC [28]: 2510 ng·h/mL
- bioavailability [29]: 51%
- clearance [30]: 16.7 mL/min/kg

Structure (SMILES): COc1ccc2ncc(F)c(CCN3CC[C@@H](NCc4cc5c(cn4)OCCO5)[C@@H](O)C3)c2n1
- logD [1]: 1.38
- MIC (Haemophilus influenzae): 0.5 µg/mL (≈ 1.06 µM)
- MIC (Staphylococcus aureus): 0.01 µg/mL (≈ 0.0213 µM)
- log10cfu (Streptococcus pneumoniae [18]): 2
- Activity (Streptococcus pneumoniae [21]): Active
- IC50 [3]: 0.051 µg/mL (≈ 0.109 µM)
- MIC (Streptococcus pneumoniae [4]): 0.06 µg/mL (≈ 0.128 µM)
- log10cfu (Streptococcus pneumoniae [26]): >=4

Structure (SMILES): COc1ccc2ncc(C#N)c(CCN3CCC(NCc4cc5c(cn4)OCS5)CC3)c2c1
- logD [1]: 2.32
- MIC (Haemophilus influenzae): 0.25 µg/mL (≈ 0.542 µM)
- MIC (Staphylococcus aureus): 0.01 µg/mL (≈ 0.0217 µM)
- pIC50 [2]: 6.30
- IC50 [3]: 0.06 µg/mL (≈ 0.13 µM)
- MIC (Streptococcus pneumoniae [4]): 0.01 µg/mL (≈ 0.0217 µM)
- pIC50 [5]: 5.70

Structure (SMILES): COc1ccc2ncc(C#N)c(CCN3CCC(NCc4cc5c(cn4)OCCO5)CC3)c2n1
- logD [1]: 1.48
- MIC (Haemophilus influenzae): 0.5 µg/mL (≈ 1.09 µM)
- MIC (Staphylococcus aureus): 0.01 µg/mL (≈ 0.0217 µM)
- IC50 [3]: 0.144 µg/mL (≈ 0.313 µM)
- MIC (Streptococcus pneumoniae [4]): 0.03 µg/mL (≈ 0.0651 µM)

Structure (SMILES): COc1ccc2nccc([C@@H](O)CN3CCC(NCc4ccc5c(c4)OCCO5)CC3)c2c1
- IC50 [31]: 0.008 µg/mL (≈ 0.0178 µM)
- logD [1]: 0.87
- MIC (Haemophilus influenzae): 0.5 µg/mL (≈ 1.11 µM)
- MIC (Staphylococcus aureus): 0.125 µg/mL (≈ 0.278 µM)
- MIC (Streptococcus pneumoniae [4]): 0.125 µg/mL (≈ 0.278 µM)

Structure (SMILES): COc1ccc2ncc(F)c(CCN3CC[C@H](NCc4cc5c(cn4)OCCO5)[C@H](O)C3)c2n1
- logD [1]: 1.52
- MIC (Haemophilus influenzae): 0.5 µg/mL (≈ 1.06 µM)
- MIC (Staphylococcus aureus): 0.03 µg/mL (≈ 0.0639 µM)
- log10cfu (Streptococcus pneumoniae [18]): 2
- Activity (Streptococcus pneumoniae [21]): Active
- IC50 [3]: 0.072 µg/mL (≈ 0.153 µM)
- MIC (Streptococcus pneumoniae [4]): 0.06 µg/mL (≈ 0.128 µM)
- log10cfu (Streptococcus pneumoniae [26]): >=4

Structure (SMILES): COc1ccc2ncc(Cl)c(CCN3CCC(NCc4cc5c(cn4)OCCO5)CC3)c2n1
- logD [1]: 2.4
- MIC (Haemophilus influenzae): 0.25 µg/mL (≈ 0.532 µM)
- MIC (Staphylococcus aureus): 0.01 µg/mL (≈ 0.0213 µM)
- log10cfu (Streptococcus pneumoniae [18]): 2
- Activity (Streptococcus pneumoniae [21]): Active
- pIC50 [2]: 5.70
- IC50 [3]: 0.027 µg/mL (≈ 0.0575 µM)
- MIC (Streptococcus pneumoniae [4]): 0.01 µg/mL (≈ 0.0213 µM)
- log10cfu (Streptococcus pneumoniae [26]): >=4
- pIC50 [5]: 5.70

Structure (SMILES): COc1ccc2ncc(F)c(CCN3CC[C@H](NCc4cc5c(cn4)OCCO5)[C@@H](O)C3)c2n1
- logD [1]: 2.1
- MIC (Haemophilus influenzae): 0.5 µg/mL (≈ 1.06 µM)
- MIC (Staphylococcus aureus): 0.01 µg/mL (≈ 0.0213 µM)
- IC50 [3]: 0.058 µg/mL (≈ 0.124 µM)
- MIC (Streptococcus pneumoniae [4]): 0.03 µg/mL (≈ 0.0639 µM)

Structure (SMILES): COc1ccc2ncc(F)c(CCN3CCC(NCc4cc5c(cn4)OCCO5)CC3)c2n1
- logD [1]: 1.81
- MIC (Haemophilus influenzae): 0.125 µg/mL (≈ 0.276 µM)
- MIC (Staphylococcus aureus): 0.01 µg/mL (≈ 0.022 µM)
- log10cfu (Streptococcus pneumoniae [18]): 2
- Activity (Streptococcus pneumoniae [21]): Active
- IC50 [3]: 0.051 µg/mL (≈ 0.112 µM)
- MIC (Streptococcus pneumoniae [4]): 0.01 µg/mL (≈ 0.022 µM)
- log10cfu (Streptococcus pneumoniae [26]): >=4

Structure (SMILES): COc1ccc2ncc(F)c(CCN3CC[C@@H](NCc4cc5c(cn4)OCCO5)[C@H](O)C3)c2n1
- logD [1]: 2.16
- MIC (Haemophilus influenzae): 0.5 µg/mL (≈ 1.06 µM)
- MIC (Staphylococcus aureus): 0.01 µg/mL (≈ 0.0213 µM)
- IC50 [3]: 0.058 µg/mL (≈ 0.124 µM)
- MIC (Streptococcus pneumoniae [4]): 0.03 µg/mL (≈ 0.0639 µM)

Structure (SMILES): COc1ccc2ncc(F)c([C@H](O)CN3CCC(NCc4cc5c(cn4)OCCO5)CC3)c2n1
- MIC (Haemophilus influenzae): 1 µg/mL (≈ 2.13 µM)
- MIC (Staphylococcus aureus): 0.06 µg/mL (≈ 0.128 µM)
- pIC50 [2]: 4.20
- IC50 [3]: 0.098 µg/mL (≈ 0.209 µM)
- MIC (Streptococcus pneumoniae [4]): 0.125 µg/mL (≈ 0.266 µM)

Structure (SMILES): COc1ccc2nccc([C@@H](O)CN3CCC(NCc4cc5c(cn4)OCCO5)CC3)c2n1
- IC50 [31]: 0.056 µg/mL (≈ 0.124 µM)
- logD [1]: 0.62
- MIC (Haemophilus influenzae): 2 µg/mL (≈ 4.43 µM)
- MIC (Staphylococcus aureus): 0.06 µg/mL (≈ 0.133 µM)
- pIC50 [2]: 4.60
- IC50 [3]: 0.016 µg/mL (≈ 0.0354 µM)
- MIC (Streptococcus pneumoniae [4]): 0.125 µg/mL (≈ 0.277 µM)
- pIC50 [5]: 5.40
